Reference: US6403651B1, “Mediation of circadian rhythms” (Luminis Pty Limited, priority 1997, dated 2002)

Experiments:
[1] = system: melatonin production (urinary aMT.6S excretion); assay: 6-Sulphatoxymelatonin rhythmicity after agonist administration at CT18; type: in vivo, rat; details: DOI 0.5 mg/kg (1.4 μmole/kg) at CT18, rats in continuous darkness
Method: (§1) Male albino wistar rats (100 g, n=5-10) were housed in metabolism cages in lightproof environment chambers in 12 hours of light followed by 12 hours of darkness, designated 12L:12D. After 3-4 days acclimation to a liquid diet (Osmolite HN) hourly urine collections commenced. The general experimental design was:
Night 1: Control collection-lights remained off from lights out for the remainder of the experiment.
Night 2: Drug administration or light pulses administered at CT 18, i.e., 6 hours after the subjective lights out. Urine collections were maintained throughout the subjective night.
Nights 3 & 4: Urine collections continued to determine any entraining effects of the stimuli.
(§2) Melatonin production was monitored by the urinary excretion of 6-sulphatoxymelatonin (aMT.6S), determined by radioimmunoassay. The time of onset of metabolite excretion was defined as the time of day that the excretion rate exceeded 20 pmol/h.
Two lighting conditions were used to investigate the effects of drugs on SCN/pineal gland function; animals held in a light: dark cycle (L:D; Type VI method of Aschoff) and animals acutely transferred to continuous darkness (DD; Type II method of Aschoff) [Aschoff J. Response curves in circadian periodicity. In Aschoff J., ed. Circadian Clocks. Amsterdam: North Holland Publishing, 1965:95-111]. […]

[2] = system: core body temperature rhythm; assay: Core body temperature rhythm studies; type: in vivo, rat; details: DOI 0.5 mg/kg subcutaneously at CT18, rats
Method: Groups of 5 rats were implanted with temperature transmitters under 3% halothane/oxygen anaesthesia and kept in individual cages on a 12L: 12D photoperiod. Five days after implanting the transmitters, the lights were turned off at the normal time (ZT12) and remained off for 5 days. The animals were injected subcutaneously with either DOI (0.5 mg/kg) or saline vehicle at CT18 (ie 30 hours after last lights off). The temperature was sampled at 10 minute intervals. Five days after the drug treatment the animals were re-entrained to the LD cycle for 8 days and either exposed to a 5 minute/20 lux light pulse 30 hours after re-initiation of constant darkness or left untreated. To determine any delays in the temperature rhythm, the time of the day that the temperature dropped below the group daily mean (37.4° C.) was calculated and the mean delay±SEM determined.

[3] = system: DOI induced c-Fos in the rat SCN; assay: Effects of antagonists on DOI induced c-Fos in the SCN; type: in vivo
Method: As a check on the specificity of the response (SCN versus direct pineal effects) experiments were also conducted to monitor c-Fos induction in the SCN in response to the treatments. Animals were sacrificed by decapitation 2 hours after treatments. Brains were removed immediately and fixed by immersion in a 4% solution of paraformaldehyde in 0.1 M buffer (pH 7.4) at room temperature. After approximately 30 hours in the fixative solution at room temperature, the brains were briefly rinsed in phosphate buffered saline (PBS) and 70 μm coronal sections were obtained on a microtome. Free floating sections were permeabilised in a 0.3% solution of Triton X-100 in PBS at 4° C. overnight. […] The immunopositive cells were quantified using a computerised image analysis system.
To determine the effects of the antagonists on c-Fos induction in the SCN, ritanserin and ketanserin were injected in doses of 1.4, 0.7 and 0.14 μmole/kg at ZT 17.5. […] The response to ritanserin (6.3 μmole/kg) and ketanserin (18 μmole/kg) administered 30 minutes prior to saline injection at CT 18 was also determined.

[4] = system: DOI induced phase delay in melatonin production; assay: Effects of serotonin antagonists on the melatonin response to DOI; type: in vivo, rat; details: antagonist 0.07 μmole/kg 30 minutes prior to DOI (1.4 μmole/kg) at CT18
Method: as §1, §2
The effects of the serotonin antagonists ritanserin and ketanserin on the melatonin response to DOI was determined. Both drugs were administered in doses of 0.7, 0.28 and 0.07 μmole/kg, 30 minutes prior to DOI (1.4 μmole/kg; 0.5 mg/kg) at CT 18; In addition, ritanserin (6.3 μmole/kg) and ketanserin (18 μmole/kg) were administered 30 minutes prior to saline injection at CT 18. Both antagonists were dissolved in DMSO and injected in a volume of 200 μl.

[5] = system: light pulse induced phase delay in aMT.6S onset; assay: Effect of serotonin antagonists on the melatonin response to a light pulse; type: in vivo, rat; details: metergoline 15 mg/kg or ritanserin 3 mg/kg at CT17.5, light 2 lux/1 minute at CT18
Method: Male albino wistar rats (100 g, n=5-10) were housed in metabolism cages in lightproof environment chambers in 12 hours of light followed by 12 hours of darkness, designated 12L:12D. After 3-4 days acclimation to a liquid diet (Osmolite HN) hourly urine collections commenced. The general experimental design was: Melatonin production was monitored by the urinary excretion of 6-sulphatoxymelatonin (aMT.6S), determined by radioimmunoassay. The time of onset of metabolite excretion was defined as the time of day that the excretion rate exceeded 20 pmol/h. To determine the effects of the serotonin antagonist, metergoline (15 mg/kg), ritanserin (3 mg/kg) and LY-53,857 (3 mg/kg) on the melatonin response to a light pulse, the drugs were administered at CT17.5. At CT18, a 2 lux light pulse was given for one minute. Using similar methodology the effects on c-fos induction in the SCN were determined.

5-HT2c receptors = target: T1, 5-HT2c receptors (Homo sapiens, UniProt P28335); details: ritanserin versus ketanserin, stated as known; cited from earlier work
T1 sequence (P28335 33-458): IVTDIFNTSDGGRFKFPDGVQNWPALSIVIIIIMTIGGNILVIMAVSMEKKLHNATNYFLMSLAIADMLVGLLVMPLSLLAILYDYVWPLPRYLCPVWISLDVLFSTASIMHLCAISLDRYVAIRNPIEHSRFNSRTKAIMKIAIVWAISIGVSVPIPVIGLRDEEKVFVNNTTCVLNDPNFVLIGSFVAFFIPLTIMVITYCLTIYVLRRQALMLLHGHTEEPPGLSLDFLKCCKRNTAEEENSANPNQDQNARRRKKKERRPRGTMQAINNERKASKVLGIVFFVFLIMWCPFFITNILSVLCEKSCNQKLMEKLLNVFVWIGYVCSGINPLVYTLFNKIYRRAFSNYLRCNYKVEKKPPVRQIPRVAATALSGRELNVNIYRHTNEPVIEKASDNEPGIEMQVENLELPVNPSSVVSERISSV

## COc1cc(CC(C)N)c(OC)cc1I (racemic) [DOI, (+/−)-1-(4-iodo-2,5-dimethoxy-phenyl)-2-aminopropane]
[1]
  melatonin metabolite (aMT.6S) excretion immediately following injection: acute decrease
[2]
  morning decline in body temperature: significantly delayed

## O=C(c1ccc(F)cc1)C1CCN(CCn2c(=O)[nH]c3ccccc3c2=O)CC1 [ketanserin]
[3]; antagonist 0.7 μmole/kg 30 minutes before DOI (1.4 μmole/kg)
  number of cells positive for c-Fos per unilateral SCN after DOI: significantly greater (P<0.05) than those observed following ritanserin 0.7 μmole/kg but not significantly different from the vehicle control
[4]
  effect on DOI induced phase delay in melatonin production: ineffective

## CN1C[C@H](CNC(=O)OCc2ccccc2)C[C@@H]2c3cccc4c3c(cn4C)C[C@H]21 [metergoline]
[5]
  block of the phase delay in aMT.6S onset induced by the light pulse: failure of the antagonists to block the phase delay

## Cc1nc2sccn2c(=O)c1CCN1CCC(=C(c2ccc(F)cc2)c2ccc(F)cc2)CC1 [ritanserin]
[5]
  block of the phase delay in aMT.6S onset induced by the light pulse: failure of the antagonists to block the phase delay
[3]; comparison of ritanserin with ketanserin pre-treatment
  inhibition of the increase in appearance of c-Fos caused by a 5-HT2c high affinity compound: greater effect than ketanserin
5-HT2c receptors
  affinity for 5-HT2c receptors relative to ketanserin: 10 fold
[4]
  effect on DOI induced phase delay in melatonin production: inhibits
